Results as given in patent US12024507B2, “Compounds as GLP-1R agonists” (Terns Pharmaceuticals, Inc., priority 2021, dated 2024).

How the values were obtained:
human GLP-1R receptor = target: T1, human GLP-1R receptor (Homo sapiens, UniProt P43220); test: GLP-1R cell assay (cAMP TR-FRET, low expression CHO-K1_hGLP-1Rlow_clone10 cell line); format: cell-based; details: CHO-K1_hGLP-1Rlow_clone10 cells, relative to control GLP-1 peptide agonist, read-out: GLP1 EC50
T1 construct: expressed in transfected cells
Experimental: Stable cell lines expressing high and low GLP-1R surface expression were generated in CHO-K1 cells transfected (Fugene 6) with a puromycin selectable DNA plasmid encoding human GLP-1R receptor (accession number: NM_002062.5) under control of an EF1A promoter. Transfected cells were seeded into 24-well plates (9,000 cells/well) containing complete medium and incubated in a humidified incubator at 37° C. with 5% carbon dioxide. After overnight incubation, medium was replaced with complete medium supplemented with puromycin (6 μg/mL) and refreshed every 2-3 days to select for stably transfected cells. Individual pools of selected cells were expanded prior to analysis for responsiveness to GLP-1 control peptide using a TR-FRET assay to detect cAMP (LANCE Ultra cAMP Assay, Perkin Elmer). Briefly, cells were collected in Versene solution, plated in 384-well plates (1,000 cells/well) and combined with serially diluted GLP-1R control peptide (10 nL) using an acoustic dispenser (ECHO). Plates were incubated for 30 minutes at 25° C. prior to the addition of EU-cAMP tracer (5 μL) and Ulight-anti-cAMP (5 μL) reagents to each well, followed by 15 minutes incubation at 25° C. TR-FRET signal was detected using an EnVision Multimode Plate Reader (excitation=320 nm; emission=615 and 655 nm). Dose-response curves were used to generate EC50 values as a measure of responsiveness to the GLP-1R control peptide. Selected cell lines were monitored for responsiveness over multiple passages to ensure stability. […] Briefly, GLP-1R expression was analyzed by flow cytometry using a fluorescein-labeled Exendin-4 peptide fluorescent probe (FLEX). Cells were harvested in Versene solution and washed 3-times with PBS+0.5% BSA before incubation with FLEX reagent (10 μM) for 2 hours at room temperature. After incubation, cells were washed 3-times in PBS+0.5% BSA before final resuspension in PBS prior to analysis by flow cytometry to measure FLEX mean fluorescence intensity (MFI) as a measure of GLP-1R expression on the cell surface.
For compound testing in the CHO-K1_hGLP-1Rlow_clone10 cell line, cells were seeded in 384-well plates (1,000 cells/well). Test compounds were serially diluted in DMSO (10-point, 3-fold dilution), added to wells using an ECHO dispenser (10 nL/well) and plates were centrifuged for 1 min and agitated for 2 min at room temperature prior to 30-minute incubation at 25° C. After incubation, Eu-cAMP (5 μL) and Ulight-anti-cAMP (5 μL) reagents were added to each well, followed by centrifugation for 1 minute, agitation for 2 minutes at room temperature, and final incubation of the plates at 25° C. for 15 minutes. Plates were read using an EnVision microplate reader (excitation=320 nm; emission=615 and 655 nm). Dose-response curves were generated from duplicate wells based on percent activation calculated relative to a control GLP-1 peptide agonist that was run in parallel. EC50 values were determined by fitting percent activation as a function of compound concentration using the Hill equation (XLfit).
The compounds tested were compound samples prepared according to the General Procedures described in the Examples section.

[1] = Metabolic stability in human hepatocytes; format: in vitro ADME; details: cryopreserved hepatocytes, 1×10^6 cells/mL; for CLint scaled at 1 μM: intrinsic clearance; for half-life at 1 μM: read-out: Human T1/2
Experimental: (§1) Test compounds were incubated in rat and human hepatocytes and stability was assessed from the substrate […] approach. Test compounds were dissolved in dimethyl sulfoxide (DMSO) to create a 10 mM Stock, and then further diluted to create a 1000×Working Stock of 1 mM with DMSO in 96-well plates for test compounds and the positive control (midazolam). Vials containing cryopreserved hepatocytes were removed from the liquid nitrogen tank and immediately immersed in a 37° C. water bath. The vials were shaken gently until the contents had thawed and were then immediately emptied into 48 mL of pre-warmed HT Medium in a 50 mL conical tube. Cells remaining in the vial were resuspended with 1.0 mL of pre-warmed HT Medium and added to the conical tube. The tube was capped and then gently inverted several times to resuspend the hepatocytes. The cell suspension was centrifuged at 50×g at room temperature for 5 minutes and the supernatant discarded. The cell pellet was loosened by gently swirling the centrifuge tube and was re-suspended in 4 mL of warm Dulbecco's Modified Eagle medium (DMEM). Cell density was determined by a cell counter by Nexcelom, and DMEM medium was added to obtain a target density of 1×10^6 cells/mL. The assay was carried out in 96-well microtiter plates. Test Compounds were incubated at 1 μM with 1×10^6 cells/mL hepatocytes in DMEM for 0, 30, 60, 120 and 240 minutes. The incubation was carried out with gentle shaking at 37° C. under a humid atmosphere of 95% air/5% CO2. The volume of the incubation mixture was 37 μL with a final 0.1% DMSO. At each of the time points, the incubation was stopped by adding 150 μL quenching solution (100% acetonitrile, 0.1% formic acid containing bucetin as an internal standard for positive ESI mode). Subsequently, the mixtures were vortexed for 20 min and centrifuged at 4,000 RPM at 10° C. The supernatant (80 μL) was transferred to a clean 96-well plate and analyzed by LC-MS/MS. Midazolam at 1 μM with a final 0.1% DMSO was included as a positive control to verify assay performance. The percent parent remaining, intrinsic and predicted hepatic clearance and t1/2 were calculated. All samples were analyzed by LC-MS/MS using an AB Sciex API 4000 instrument, coupled to a Shimadzu LC-20AD LC Pump system. Separation was achieved using a Waters Atlantis T3 dC18 reverse phase HPLC column (20 mm×2.1 mm) at a flow rate of 0.5 mL/min. The mobile phase consisted of 0.1% formic acid in water (solvent A) and 0.1% formic acid in 100% acetonitrile (solvent B). Elution conditions are detailed below.
(§2) The ion optics of each test compound were optimized for their declustering potential (DP), […] (CE), collision-cell exit potential (CXP) and used in a selected ion monitoring experiment in the positive ion mode. The peak area ratio of each test compound to internal standard was then evaluated for stability. The extent of metabolism was calculated based on the disappearance of the test compound, compared to its initial concentration. The initial rates of clearance of the test compound were calculated using the linear regression plot of semi-log % remaining of the compound versus time.
(§3) The predicted hepatic clearance (CLhep) was calculated using the well stirred method with the following formula with CLint(in vivo) normalized based on liver weight: CLint(in vivo)=CLint×Hepatocellularity×liver weight CLhep predicted=(CLint(in vivo)×Qliver)/(CLint(in vivo)+Qliver) Where Qliver ((ml/min/kg) is Liver Blood Flow
(§4) The relevant physiological parameters of liver weight, blood flow, and hepatocellularity for various species are listed below:
(§5) Results are presented in the Table B3 below for the intrinsic clearance (mL/min/kg) and half-life (t1/2).

[2] = Metabolic stability in rat hepatocytes; format: in vitro ADME; details: cryopreserved hepatocytes, 1×10^6 cells/mL; for CLint scaled at 1 μM: intrinsic clearance; for half-life at 1 μM: read-out: Rat T1/2
Experimental: as §1, §2, §3, §4, §5

T1 sequence (P43220 24-463): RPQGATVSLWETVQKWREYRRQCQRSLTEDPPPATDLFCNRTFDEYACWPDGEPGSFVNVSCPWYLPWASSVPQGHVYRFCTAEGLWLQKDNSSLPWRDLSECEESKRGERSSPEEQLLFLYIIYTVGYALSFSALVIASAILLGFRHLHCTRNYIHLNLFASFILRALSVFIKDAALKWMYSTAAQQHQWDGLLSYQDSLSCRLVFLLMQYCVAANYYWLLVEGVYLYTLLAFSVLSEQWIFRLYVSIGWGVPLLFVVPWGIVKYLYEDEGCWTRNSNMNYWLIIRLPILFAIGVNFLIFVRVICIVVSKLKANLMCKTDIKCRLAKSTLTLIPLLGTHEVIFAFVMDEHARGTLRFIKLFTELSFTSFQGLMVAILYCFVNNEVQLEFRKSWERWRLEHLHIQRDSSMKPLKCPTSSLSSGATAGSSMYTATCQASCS

N#Cc1ccc(COc2cccc(C3CCN(Cc4nc5ccc(C(=O)NO)cc5n4C[C@@H]4CCO4)CC3)n2)c(F)c1 [Compound 14, (S)-2-((4-(6-((4-cyano-2-fluorobenzyl)oxy)pyridin-2-yl)piperidin-1-yl)methyl)-N-hydroxy-1-(oxetan-2-ylmethyl)-1H-benzo[d]imidazole-6-carboxamide]
EC50 (human GLP-1R receptor): 50 nM

N#Cc1ccc(COc2cccc(C3CCN(Cc4nc5ccc(-c6nc(=O)o[nH]6)cc5n4C[C@@H]4CCO4)CC3)n2)c(F)c1 [Compound 5, (S)-3-fluoro-4-(((6-(1-((1-(oxetan-2-ylmethyl)-6-(5-oxo-2,5-dihydro-1,2,4-oxadiazol-3-yl)-1H-benzo[d]imidazol-2-yl)methyl)piperidin-4-yl)pyridin-2-yl)oxy)methyl)benzonitrile]
EC50 (human GLP-1R receptor): 45.4 nM

O=c1cc(-c2ccc3nc(CN4CCC(c5cccc(OCc6ccc(Cl)cc6F)n5)CC4)n(C[C@@H]4CCO4)c3c2)o[nH]1 [Compound 6, (S)-5-(2-((4-(6-((4-chloro-2-fluorobenzyl)oxy)pyridin-2-yl)piperidin-1-yl)methyl)-1-(oxetan-2-ylmethyl)-1H-benzo[d]imidazol-6-yl)isoxazol-3(2H)-one]
EC50 (human GLP-1R receptor): 10.6 nM

CS(=O)(=O)NC(=O)c1ccc2nc(CN3CCN(c4cccc(OCc5ccc(C#N)cc5F)n4)CC3)n(Cc3ncco3)c2c1 [Compound 4, 2-((4-(6-((4-cyano-2-fluorobenzyl)oxy)pyridin-2-yl)piperazin-1-yl)methyl)-N-(dioxo-l5-sulfaneyl)-1-(oxazol-2-ylmethyl)-1H-benzo[d]imidazole-6-carboxamide]
EC50 (human GLP-1R receptor): 231 nM

N#Cc1ccc(COc2cccc(C3CCN(Cc4nc5ccc(-c6c[nH]c(=O)o6)cc5n4Cc4cncs4)CC3)n2)c(F)c1 [Compound 12, 3-fluoro-4-(((6-(1-((6-(2-oxo-2,3-dihydrooxazol-5-yl)-1-(thiazol-5-ylmethyl)-1H-benzo[d]imidazol-2-yl)methyl)piperidin-4-yl)pyridin-2-yl)oxy)methyl)benzonitrile]
EC50 (human GLP-1R receptor): 704 nM

N#Cc1ccc(COc2cccc(C3CCN(Cc4nc5ccc(C6=CC(=O)NC6=O)cc5n4Cc4cncs4)CC3)n2)c(F)c1 [Compound 9, 4-(((6-(1-((6-(2,5-dioxo-2,5-dihydro-1H-pyrrol-3-yl)-1-(thiazol-5-ylmethyl)-1H-benzo[d]imidazol-2-yl)methyl)piperidin-4-yl)pyridin-2-yl)oxy)methyl)-3-fluorobenzonitrile]
EC50 (human GLP-1R receptor): 461 nM

N#Cc1ccc(COc2cccc(N3CCN(Cc4nc5ccc(C(=O)NCC(F)(F)F)cc5n4Cc4ncco4)CC3)n2)c(F)c1 [Compound 3, 2-((4-(6-((4-cyano-2-fluorobenzyl)oxy)pyridin-2-yl)piperazin-1-yl)methyl)-1-(oxazol-2-ylmethyl)-N-(2,2,2-trifluoroethyl)-1H-benzo[d]imidazole-6-carboxamide]
EC50 (human GLP-1R receptor): 5940 nM

N#Cc1ccc(COc2cccc(C3CCN(Cc4nc5ccc(C6(O)COC6)cc5n4Cc4cncs4)CC3)n2)c(F)c1 [Compound 15, 3-fluoro-4-(((6-(1-((6-(3-hydroxyoxetan-3-yl)-1-(thiazol-5-ylmethyl)-1H-benzo[d]imidazol-2-yl)methyl)piperidin-4-yl)pyridin-2-yl)oxy)methyl)benzonitrile]
EC50 (human GLP-1R receptor): > 10000 nM

O=c1nc(-c2ccc3nc(CN4CCN(c5cccc(OCc6ccc(Br)cc6F)n5)CC4)n(C[C@@H]4CCO4)c3c2)[nH]o1 [Compound 7, (S)-3-(2-((4-(6-((4-bromo-2-fluorobenzyl)oxy)pyridin-2-yl)piperazin-1-yl)methyl)-1-(oxetan-2-ylmethyl)-1H-benzo[d]imidazol-6-yl)-1,2,4-oxadiazol-5(2H)-one]
EC50 (human GLP-1R receptor): 148 nM

N#Cc1ccc(COc2cccc(C34CCN(Cc5nc6ccc(-c7nnn[nH]7)cc6n5Cc5cncs5)CC3C4)n2)c(F)c1 (centres unmarked) [Compound 10, 4-(((6-(3-((6-(1H-tetrazol-5-yl)-1-(thiazol-5-ylmethyl)-1H-benzo[d]imidazol-2-yl)methyl)-3-azabicyclo[4.1.0]heptan-6-yl)pyridin-2-yl)oxy)methyl)-3-fluorobenzonitrile]
EC50 (human GLP-1R receptor): 118 nM

N#Cc1ccc(COc2cccc(C3CCN(Cc4nc5ccc(-c6nnn[nH]6)cc5n4Cc4cncs4)CC3)n2)c(F)c1 [Compound 11, 4-(((6-(1-((6-(1H-tetrazol-5-yl)-1-(thiazol-5-ylmethyl)-1H-benzo[d]imidazol-2-yl)methyl)piperidin-4-yl)pyridin-2-yl)oxy)methyl)-3-fluorobenzonitrile]
EC50 (human GLP-1R receptor): 53.2 nM | CLint scaled at 1 μM [1]: 19.7 ± 0.4 mL/min/kg | half-life at 1 μM [1]: 2.03 ± 0.041 h | CLint scaled at 1 μM [2]: 68.3 ± 2.52 mL/min/kg | half-life at 1 μM [2]: 0.812 ± 0.03 h

CC1(c2ccc(C#N)cc2F)Oc2cccc(C3CCN(Cc4nc5ccc(-c6nnn[nH]6)cc5n4C[C@@H]4CCO4)CC3)c2O1 (stereo partly drawn) [Compound 16, 3-fluoro-4-(2-methyl-4-(1-((1-(((S)-oxetan-2-yl)methyl)-6-(1H-tetrazol-5-yl)-1H-benzo [d]imidazol-2-yl)methyl)piperidin-4-yl)benzo[d][1,3]dioxol-2-yl)benzonitrile]
EC50 (human GLP-1R receptor): 2.68 nM | CLint scaled at 1 μM [1]: 6.22 ± 0.55 mL/min/kg | half-life at 1 μM [1]: 6.44 ± 0.571 h | CLint scaled at 1 μM [2]: 6.93 mL/min/kg | half-life at 1 μM [2]: 8 h
